Source: patent US10294202B2, “Pyrrolidinones as herbicides” (FMC Corporation, priority 2013, dated 2019)

Assays:
barnyardgrass [1] = test: Test C pre-/postemergence herbicide test; type: in vivo, Echinochloa crus-galli; details: Preemergence
Excerpt: (§1) Seeds of plant species selected from blackgrass (Alopecurus myosuroides), ryegrass, Italian (Italian ryegrass, Lolium multiflorum), wheat (winter wheat, Triticum aestivum), galium (catchweed bedstraw, Galium aparine), corn (Zea mays), crabgrass, large (large crabgrass, Digitaria sanguinalis), foxtail, giant (giant foxtail, Setaria faberii), johnsongrass (Sorghum halepense), lambsquarters (Chenopodium album), morningglory (Ipomoea coccinea), nutsedge, yellow (yellow nutsedge, Cyperus esculentus), pigweed (Amaranthus retroflexus), ragweed (common ragweed, Ambrosia elatior), soybean (Glycine max), barnyardgrass (Echinochloa crus-galli), oilseed rape (Brassica napus), waterhemp (common waterhemp, Amaranthus rudis), kochia (Kochia scoparia), oat, wild (wild oat, Avena fatua), surinam grass (Brachiaria decumbens), foxtail, green (green foxtail, Setaria viridis), goosegrass (Eleusine indica), bromegrass, downy (downy bromegrass, Bromus tectorum), nightshade (eastern black nightshade, Solanum ptycanthum), cocklebur (common cocklebur, Xanthium strumarium), cupgrass, woolly (woolly cupgrass, Eriochloa villosa), bermudagrass (Cynodon dactylon), sunflower, (common oilseed sunflower, Helianthus annuus), Russian thistle (Salsola kali) and velvetleaf (Abutilon theophrasti) were planted into a blend of loam soil and sand and treated preemergence with test chemicals formulated in a non-phytotoxic solvent mixture which included a surfactant. At the same time, plants selected from these crop and weed species and also barley (winter barley, Hordeum vulgare), […]), chickweed (common chickweed, Stellaria media), deadnettle (henbit deadnettle, Lamium amplexicaule), and canarygrass (littleseed canarygrass, Phalaris minor) were planted in pots containing Redi-Earth® planting medium (Scotts Company, 14111 Scottslawn Road, Marysville, Ohio 43041) comprising spaghnum peat moss, vermiculite, wetting agent and starter nutrients and treated with postemergence applications of test chemicals formulated in the same manner. Plants ranged in height from 2 to 18 cm (1- to 4-leaf stage) for postemergence treatments. Treated plants and controls were maintained in a greenhouse for 13 to 15 days, after which time all species were compared to controls and visually evaluated. Plant response ratings, summarized in Table C, are based on a scale of 0 to 100 where 0 is no effect and 100 is complete control. A dash (-) response means no test result.

crabgrass, large = test: Test C pre-/postemergence herbicide test; type: in vivo, Digitaria sanguinalis; details: Preemergence
Excerpt: as §1

corn = test: Test A pre-/postemergence herbicide test; type: in vivo, Zea mays; details: for Corn plant response rating: Preemergence, visual rating on 0 to 100 scale (0 no effect, 100 complete control)
Method in brief: (§2)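 Approximately 10 days after treatment in the greenhouse, plants were compared with untreated controls and given a 0–100 visual injury rating. Applications: preemergence directed soil spray; postemergence on 2–10 cm plants at the one- to two-leaf stage.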

blackgrass = test: Test C pre-/postemergence herbicide test; type: in vivo, Alopecurus myosuroides; details: Preemergence; for Blackgrass plant response rating: 31 g ai/ha
Excerpt: as §1

soybean = test: Test C pre-/postemergence herbicide test; type: in vivo, Glycine max; details: Preemergence
Excerpt: as §1

giant foxtail = test: Test A pre-/postemergence herbicide test; type: in vivo, Setaria faberii; details: for Foxtail, Giant plant response rating: Preemergence, visual rating on 0 to 100 scale (0 no effect, 100 complete control)
Method in brief: as §2

barnyardgrass [2] = test: Test A pre-/postemergence herbicide test; type: in vivo, Echinochloa crus-galli; details: for Barnyardgrass plant response rating: Preemergence, visual rating on 0 to 100 scale (0 no effect, 100 complete control)
Method in brief: as §2

morningglory = test: Test C pre-/postemergence herbicide test; type: in vivo, Ipomoea coccinea; details: Preemergence
Excerpt: as §1

ragweed = test: Test C pre-/postemergence herbicide test; type: in vivo, Ambrosia elatior; details: Preemergence
Excerpt: as §1

[3] = 31 g ai/ha, scale 0 to 100, 0 is no effect and 100 is complete control
[4] = 125 g ai/ha, scale 0 to 100 (0 no effect, 100 complete control)
[5] = 62 g ai/ha, scale 0 to 100 (0 no effect, 100 complete control)
[6] = Postemergence, 125 g ai/ha, 0 to 100 scale, 0 is no effect, 100 is complete control
[7] = 125 g ai/ha, visual rating, 0 to 100 scale, 0 no effect, 100 complete control, approximately 10 days, preemergence
[8] = preemergence, 500 g ai/ha, 0 to 100 scale, 0 is no effect and 100 is complete control
[9] = Postemergence, 125 g ai/ha, 0 to 100 scale, 0 no effect, 100 complete control
[10] = Postemergence, 500 g ai/ha, 0 to 100 scale (0 no effect, 100 complete control)
[11] = preemergence, 500 g ai/ha, 0 to 100 scale
[12] = preemergence, 500 g ai/ha, 0 to 100 scale (0 no effect, 100 complete control)

O=C1NCC(c2cccc(C(F)F)c2)C1C(=O)Nc1cccc(F)c1F (racemic) [Compound 211]
Barnyardgrass plant response rating (barnyardgrass [1]; [3]): 30 | Plant response rating, Barnyardgrass (barnyardgrass [1]; 62 g ai/ha, scale 0 to 100): 65 | Plant response rating, Barnyardgrass (barnyardgrass [1]; [4]): 85 | Plant response rating (scale of 0 to 100; 0 is no effect, 100 is complete control), Barnyardgrass (barnyardgrass [1]; 250 g ai/ha): 90 | Crabgrass, Large plant response rating (crabgrass, large; [3]): 100 | Crabgrass, Large plant response rating (crabgrass, large; [5]): 95 | Plant response rating, Crabgrass, Large (crabgrass, large; [4]): 95 | Plant response rating (scale of 0 to 100), Crabgrass, Large (crabgrass, large; 250 g ai/ha): 95 | Plant response rating, Corn (corn; [6]): 30 | Corn plant response rating (0 to 100 scale, 0 is no effect, 100 is complete control) (corn; Postemergence, 500 g ai/ha): 70 | Blackgrass plant response rating (blackgrass; scale 0 to 100, 0 is no effect and 100 is complete control): 0 | Plant response rating, Blackgrass (blackgrass; 62 g ai/ha, scale 0 to 100): 20 | Plant response rating, Blackgrass (blackgrass; [4]): 85 | Plant response rating (scale of 0 to 100), Blackgrass (blackgrass; 250 g ai/ha): 90 | Soybean plant response rating (soybean; [3]): 0 | Soybean plant response rating (soybean; [5]): 0 | Plant response rating, Soybean (soybean; [4]): 5 | Plant response rating (scale of 0 to 100), Soybean (soybean; 250 g ai/ha): 0 | Plant response rating, Foxtail, Giant (giant foxtail; [7]): 80 | Plant response rating, Foxtail, Giant (giant foxtail; [6]): 70 | Foxtail, Giant plant response rating (0 to 100 scale, 0 is no effect, 100 is complete control) (giant foxtail; Postemergence, 500 g ai/ha): 90 | Plant response rating, Foxtail, Giant (giant foxtail; [8]): 90 | Plant response rating, Barnyardgrass (barnyardgrass [2]; [7]): 80 | Plant response rating, Barnyardgrass (barnyardgrass [2]; [6]): 90 | Barnyardgrass plant response rating (0 to 100 scale, 0 is no effect, 100 is complete control) (barnyardgrass [2]; Postemergence, 500 g ai/ha): 90 | Plant response rating, Barnyardgrass (barnyardgrass [2]; [8]): 90 | Morningglory plant response rating (morningglory; [3]): 0 | Morningglory plant response rating (morningglory; [5]): 0 | Plant response rating, Morningglory (morningglory; [4]): 0 | Plant response rating (scale of 0 to 100), Morningglory (morningglory; 250 g ai/ha): 0 | Ragweed plant response rating (ragweed; [3]): 0 | Ragweed plant response rating (ragweed; [5]): 10 | Plant response rating, Ragweed (ragweed; [4]): 85 | Plant response rating (scale of 0 to 100), Ragweed (ragweed; 250 g ai/ha): 100

O=C1NCC(c2ccc(F)cc2)C1C(=O)Nc1ccccc1F (racemic) [Compound 16]
Crabgrass, Large plant response rating (crabgrass, large; 31 g ai/ha, scale 0 to 100 (0 no effect, 100 complete control)): 95 | Plant response rating, Crabgrass, Large (crabgrass, large; 62 g ai/ha, scale 0 to 100): 95 | Plant response rating, Crabgrass, Large (crabgrass, large; [4]): 100 | Plant response rating, Crabgrass, Large (crabgrass, large; 250 g ai/ha, scale 0 to 100 (0 no effect, 100 complete control)): 100 | Plant response rating, Corn (corn; [9]): 0 | Plant response rating, Corn (corn; [10]): 30 | Corn plant response rating (corn; 125 g ai/ha): 0 | Plant response rating, Corn (corn; [11]): 30 | Blackgrass plant response rating (blackgrass; scale 0 to 100 (0 no effect, 100 complete control)): 0 | Plant response rating, Blackgrass (blackgrass; 62 g ai/ha, scale 0 to 100): 5 | Plant response rating, Blackgrass (blackgrass; [4]): 10 | Plant response rating, Soybean (soybean; 62 g ai/ha, scale 0 to 100): 0 | Plant response rating, Soybean (soybean; [4]): 0 | Plant response rating, Foxtail, Giant (giant foxtail; [9]): 60 | Plant response rating, Foxtail, Giant (giant foxtail; [10]): 90 | Foxtail, Giant plant response rating (giant foxtail; 125 g ai/ha): 90 | Plant response rating, Foxtail, Giant (giant foxtail; [11]): 90 | Plant response rating, Barnyardgrass (barnyardgrass [2]; [9]): 70 | Plant response rating, Barnyardgrass (barnyardgrass [2]; [10]): 90 | Barnyardgrass plant response rating (barnyardgrass [2]; 125 g ai/ha): 80 | Plant response rating, Barnyardgrass (barnyardgrass [2]; [12]): 90 | Plant response rating, Morningglory (morningglory; 62 g ai/ha, scale 0 to 100): 0 | Plant response rating, Morningglory (morningglory; [4]): 0 | Plant response rating, Ragweed (ragweed; 62 g ai/ha, scale 0 to 100): 0 | Plant response rating, Ragweed (ragweed; [4]): 0

O=C1NCC(c2cccc(C(F)(F)F)c2)C1C(=O)Nc1ccccc1F (racemic) [Compound 3]
Plant response rating, Corn (corn; [9]): 0 | Plant response rating, Corn (corn; [10]): 60 | Corn plant response rating (corn; 125 g ai/ha): 0 | Plant response rating, Corn (corn; [11]): 50 | Plant response rating, Foxtail, Giant (giant foxtail; [9]): 60 | Plant response rating, Foxtail, Giant (giant foxtail; [10]): 80 | Foxtail, Giant plant response rating (giant foxtail; 125 g ai/ha): 90 | Plant response rating, Foxtail, Giant (giant foxtail; [11]): 90 | Plant response rating, Barnyardgrass (barnyardgrass [2]; [9]): 70 | Plant response rating, Barnyardgrass (barnyardgrass [2]; [10]): 80 | Barnyardgrass plant response rating (barnyardgrass [2]; 125 g ai/ha): 60 | Plant response rating, Barnyardgrass (barnyardgrass [2]; [12]): 80
